Test results published in US20060142254A1, “Antipyretic preparation containing xylitol” (ROQUETTE FRERES, priority 2001, published 2006).

Assays:
[1] = test system: healthy rabbit; details: intravenous administration; cited from earlier work
[2] = test system: rabbits having received a dose of endotoxins equal to 12 EU/kg; assay: Pyrogen test in rabbits: lowering of the body temperature increase caused by intravenously injected endotoxins; format: in vivo, rabbit; details: xylitol 1.5 g/kg, ASPEGIC 100 mg/kg where present; for Difference compared with the positive control of contamination (%): lowering of the endotoxin-induced temperature increase versus Batch 2, endotoxins 12 EU/kg i.v., significant when greater than 5%; for Temperature increase (° C.): mean temperature difference, 3 rabbits per batch, endotoxins 12 EU/kg intravenously
Excerpt: Specifically, the pyrogen test in rabbits is the test described in the European Pharmacopoeia for verifying, in vivo, the apyrogenicity of certain molecules intended to be administered parenterally.
Thus, the applicant company, a producer of molecules intended to be administered parenterally, therefore used this test, which it has perfected, under the conditions described in the European Pharmacopoeia, in order to determine the body temperature-lowering effects of xylitol alone, and of xylitol combined with an antipyretic.
The experiment is carried out with batches of laboratory animals, in this instance here, rabbits.
The solutions to be injected are prepared in sterile water (water for injectable preparation—AGUETTANT).
The bottles of endotoxins (control standard Entotoxin or CSE—ENDOSAFE) contain 5 ml of endotoxins at 30 EU/ml with 120 ml of water for injectable preparation.
The contamination is calculated so as to observe a pyrogenic shock in the rabbit. This contamination is produced by intravenously injecting endotoxins in a proportion of 1.2 EU/ml, i.e. 12 EU/kg.
The antipyretic agent, in this instance aspirin, is prepared extemporaneously. 6.6 ml are added to 125 ml of endotoxins so as to obtain a dose equivalent to 100 mg/kg. The aspirin chosen is injectable ASPEGIC® (DL-lysine acetyl salicylate), manufactured by Laboratoires SYNTHELABO (LE PLESSIS ROBINSON), packed in proportion of 6 bottles of 2 g of powder and 6 vials of 5 ml of water for injectable preparation, for extemporaneous dissolution.
The xylitol is a batch of apyrogenic XYLISORB® manufactured by the applicant company. Apyrogenic dextrose monohydrate (marketed under the trademark LYCADEX® PF by the applicant company) is used as a control.
The rabbits are injected with a solution of xylitol at 150 g/l with water for injectable solution contaminated or not contaminated with the endotoxins. Five experiments are carried out with 3 rabbits per batch.

Compound	effect on body temperature of the laboratory animal [1]	Difference compared with the positive control of contamination (%) [2] [%]	Temperature increase (° C.) [2] [°C]
methylephedrine	lowers the body temperature		
CC(=O)Oc1ccccc1C(=O)O (racemic) [Batch 3, DL-lysine acetyl salicylate]		46	1.57
OC[C@@H](O)[C@H](O)[C@@H](O)CO [Batch 4, xylitol]	lowers the body temperature	7.5	2.73
